Laboratory results as given in publication PMC8213057, “Targeting ALK2: An Open Science Approach to Developing Therapeutics for the Treatment of Diffuse Intrinsic Pontine Glioma” (Journal of Medicinal Chemistry, 2020).

Experiments:
PAK1 = PAK1 (Homo sapiens, UniProt Q13153); conditions: 1 μM; Run 1, Run 2
ARK5/NUAK1 = biological target: T1, ARK5/NUAK1 (Homo sapiens, UniProt O60285); conditions: 1 μM; Run 1, Run 2
T1 sequence (O60285 1-661): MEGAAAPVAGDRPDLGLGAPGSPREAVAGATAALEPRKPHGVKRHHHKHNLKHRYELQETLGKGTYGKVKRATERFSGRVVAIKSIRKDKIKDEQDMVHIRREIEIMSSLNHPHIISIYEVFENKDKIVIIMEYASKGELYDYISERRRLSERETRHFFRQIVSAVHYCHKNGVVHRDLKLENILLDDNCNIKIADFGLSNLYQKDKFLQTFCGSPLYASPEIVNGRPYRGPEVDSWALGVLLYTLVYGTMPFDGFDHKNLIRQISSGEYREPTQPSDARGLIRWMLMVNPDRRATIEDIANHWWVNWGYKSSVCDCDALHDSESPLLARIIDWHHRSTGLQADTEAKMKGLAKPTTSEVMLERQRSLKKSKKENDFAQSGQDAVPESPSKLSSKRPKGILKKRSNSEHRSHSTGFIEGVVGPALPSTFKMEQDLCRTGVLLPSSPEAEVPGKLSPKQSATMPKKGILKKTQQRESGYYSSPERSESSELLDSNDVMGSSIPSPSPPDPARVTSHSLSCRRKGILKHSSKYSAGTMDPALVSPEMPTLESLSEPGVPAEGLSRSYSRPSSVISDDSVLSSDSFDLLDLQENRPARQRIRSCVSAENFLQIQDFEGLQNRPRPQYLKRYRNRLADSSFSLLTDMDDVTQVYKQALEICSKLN

ITK = biological target: T2, ITK (Homo sapiens, UniProt Q08881); conditions: 1 μM; Run 1, Run 2
T2 sequence (Q08881 1-620): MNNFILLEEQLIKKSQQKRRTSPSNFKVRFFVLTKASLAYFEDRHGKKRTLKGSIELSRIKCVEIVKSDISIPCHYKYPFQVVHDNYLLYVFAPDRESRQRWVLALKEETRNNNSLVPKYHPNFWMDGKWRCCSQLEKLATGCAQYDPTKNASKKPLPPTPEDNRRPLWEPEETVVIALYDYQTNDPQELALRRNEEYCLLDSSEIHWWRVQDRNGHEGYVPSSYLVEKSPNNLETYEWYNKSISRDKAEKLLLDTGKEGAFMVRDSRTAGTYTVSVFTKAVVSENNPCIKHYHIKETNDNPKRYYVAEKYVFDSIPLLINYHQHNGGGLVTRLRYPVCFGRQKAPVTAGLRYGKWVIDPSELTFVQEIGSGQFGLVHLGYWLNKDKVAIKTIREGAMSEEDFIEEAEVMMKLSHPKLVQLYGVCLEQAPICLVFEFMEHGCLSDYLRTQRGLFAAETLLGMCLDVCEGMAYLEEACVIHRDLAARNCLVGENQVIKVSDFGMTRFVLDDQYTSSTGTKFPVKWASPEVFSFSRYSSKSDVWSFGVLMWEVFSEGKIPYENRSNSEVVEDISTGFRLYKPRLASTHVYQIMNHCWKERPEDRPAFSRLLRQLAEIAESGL

PKCb1 = PKCb1 (Homo sapiens, UniProt P05771); assay: biochemical; conditions: read-out: % enzyme activity, 1 μM; Run 1, Run 2
PKAcg = PKAcg (Homo sapiens, UniProt P22612); assay: biochemical; conditions: read-out: % enzyme activity, 1 μM; Run 1, Run 2
ZIPK/DAPK3 = ZIPK/DAPK3 (Homo sapiens, UniProt O43293); conditions: 1 μM; Run 1, Run 2
BRSK1 = biological target: T3, BRSK1 (Homo sapiens, UniProt Q8TDC3); conditions: 1 μM; Run 1, Run 2
T3 sequence (Q8TDC3 1-778): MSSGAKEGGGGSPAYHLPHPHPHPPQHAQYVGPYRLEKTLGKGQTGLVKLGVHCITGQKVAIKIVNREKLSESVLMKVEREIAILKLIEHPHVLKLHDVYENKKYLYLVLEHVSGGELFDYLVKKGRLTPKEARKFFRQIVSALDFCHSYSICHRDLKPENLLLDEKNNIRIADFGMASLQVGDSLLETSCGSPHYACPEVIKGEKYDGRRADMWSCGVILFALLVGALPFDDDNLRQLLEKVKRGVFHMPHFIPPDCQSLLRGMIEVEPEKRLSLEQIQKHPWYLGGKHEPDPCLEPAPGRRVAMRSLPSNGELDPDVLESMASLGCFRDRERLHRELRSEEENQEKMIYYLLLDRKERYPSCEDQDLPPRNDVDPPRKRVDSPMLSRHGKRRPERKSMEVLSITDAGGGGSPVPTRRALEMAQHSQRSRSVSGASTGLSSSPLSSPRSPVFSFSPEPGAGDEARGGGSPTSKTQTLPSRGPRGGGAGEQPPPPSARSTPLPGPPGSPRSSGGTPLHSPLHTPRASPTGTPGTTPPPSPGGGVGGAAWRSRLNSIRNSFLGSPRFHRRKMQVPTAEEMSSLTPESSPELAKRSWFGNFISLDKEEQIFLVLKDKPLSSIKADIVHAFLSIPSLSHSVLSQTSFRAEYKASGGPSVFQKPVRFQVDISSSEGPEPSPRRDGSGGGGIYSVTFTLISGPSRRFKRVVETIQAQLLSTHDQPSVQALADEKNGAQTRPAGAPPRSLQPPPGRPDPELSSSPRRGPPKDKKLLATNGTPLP

FLT4/VEGFR3 = FLT4/VEGFR3 (Homo sapiens, UniProt P35916); conditions: 1 μM; Run 1, Run 2
CK2a = CK2a (Homo sapiens, UniProt P68400); conditions: 1 μM; Run 1, Run 2
PIM3 = PIM3 (Homo sapiens, UniProt Q86V86); assay: biochemical; conditions: read-out: % enzyme activity, 1 μM; Run 1, Run 2
HPK1/MAP4K1 = HPK1/MAP4K1 (Homo sapiens, UniProt Q92918); conditions: 1 μM; Run 1, Run 2
CYP2D6 = biological target: T4, CYP2D6 (Homo sapiens, UniProt P10635); assay: CYP inhibition assay; format: in vitro ADME; conditions: human liver microsomes
T4 construct: tissue Corning 452117; host or cells: pooled human liver microsomes (UltraPool HLM 150, mixed gender)

JNK2 = JNK2 (Homo sapiens, UniProt P45984); assay: biochemical; conditions: read-out: % enzyme activity, 1 μM; Run 1, Run 2
MLK3/MAP3K11 = MLK3/MAP3K11 (Homo sapiens, UniProt Q16584); conditions: 1 μM; Run 1, Run 2
TESK1 = TESK1 (Homo sapiens, UniProt Q15569); assay: biochemical; conditions: read-out: % enzyme activity, 1 μM; Run 1, Run 2
TESK1, sequence (Q15569 whole entry): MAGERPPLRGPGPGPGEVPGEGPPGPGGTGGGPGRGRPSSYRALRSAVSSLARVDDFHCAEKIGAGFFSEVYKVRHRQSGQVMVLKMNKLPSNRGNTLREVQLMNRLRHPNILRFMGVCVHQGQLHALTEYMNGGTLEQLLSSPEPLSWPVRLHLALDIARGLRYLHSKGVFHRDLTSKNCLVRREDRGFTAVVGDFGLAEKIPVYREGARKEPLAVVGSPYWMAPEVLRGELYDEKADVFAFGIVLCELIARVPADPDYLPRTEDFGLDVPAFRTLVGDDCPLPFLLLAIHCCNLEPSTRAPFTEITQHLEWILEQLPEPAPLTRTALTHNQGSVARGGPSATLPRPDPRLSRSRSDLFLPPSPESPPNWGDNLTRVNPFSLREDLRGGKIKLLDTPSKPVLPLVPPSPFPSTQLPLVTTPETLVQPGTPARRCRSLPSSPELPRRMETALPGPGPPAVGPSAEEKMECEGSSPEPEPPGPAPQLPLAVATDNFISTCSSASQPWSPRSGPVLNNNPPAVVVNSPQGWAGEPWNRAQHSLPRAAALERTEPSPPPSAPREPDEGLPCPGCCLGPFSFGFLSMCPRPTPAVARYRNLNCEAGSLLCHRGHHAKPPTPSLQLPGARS

PKCb1, sequence (P05771 whole entry): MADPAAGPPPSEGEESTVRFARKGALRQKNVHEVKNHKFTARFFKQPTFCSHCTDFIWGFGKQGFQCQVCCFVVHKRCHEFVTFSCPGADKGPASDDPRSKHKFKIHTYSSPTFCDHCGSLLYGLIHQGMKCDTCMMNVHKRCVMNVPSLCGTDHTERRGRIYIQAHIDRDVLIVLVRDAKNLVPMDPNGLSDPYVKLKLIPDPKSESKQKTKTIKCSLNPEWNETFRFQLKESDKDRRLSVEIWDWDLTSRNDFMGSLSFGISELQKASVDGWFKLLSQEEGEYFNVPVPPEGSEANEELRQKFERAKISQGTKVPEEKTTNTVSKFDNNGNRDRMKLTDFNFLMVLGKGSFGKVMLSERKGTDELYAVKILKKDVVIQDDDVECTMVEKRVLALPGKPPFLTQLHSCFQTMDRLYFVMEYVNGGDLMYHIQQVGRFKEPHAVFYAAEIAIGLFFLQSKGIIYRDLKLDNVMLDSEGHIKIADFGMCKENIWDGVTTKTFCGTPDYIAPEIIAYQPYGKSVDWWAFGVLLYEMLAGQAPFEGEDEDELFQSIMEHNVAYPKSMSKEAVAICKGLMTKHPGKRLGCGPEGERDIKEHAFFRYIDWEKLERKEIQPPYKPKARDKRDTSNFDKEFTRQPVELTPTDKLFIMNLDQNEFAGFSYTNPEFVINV
ZIPK/DAPK3, sequence (O43293 whole entry): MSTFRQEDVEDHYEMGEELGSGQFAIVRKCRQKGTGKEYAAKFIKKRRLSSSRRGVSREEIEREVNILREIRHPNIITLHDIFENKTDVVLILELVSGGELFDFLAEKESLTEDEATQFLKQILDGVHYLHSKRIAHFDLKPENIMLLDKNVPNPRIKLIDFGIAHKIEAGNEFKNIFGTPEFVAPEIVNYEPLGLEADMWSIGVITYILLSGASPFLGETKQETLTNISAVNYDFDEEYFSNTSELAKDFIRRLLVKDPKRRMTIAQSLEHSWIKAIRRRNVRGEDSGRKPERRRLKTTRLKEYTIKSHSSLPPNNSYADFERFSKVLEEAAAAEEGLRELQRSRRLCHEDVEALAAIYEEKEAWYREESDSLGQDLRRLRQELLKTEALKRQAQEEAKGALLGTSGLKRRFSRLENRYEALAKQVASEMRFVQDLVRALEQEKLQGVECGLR
CK2a, sequence (P68400 whole entry): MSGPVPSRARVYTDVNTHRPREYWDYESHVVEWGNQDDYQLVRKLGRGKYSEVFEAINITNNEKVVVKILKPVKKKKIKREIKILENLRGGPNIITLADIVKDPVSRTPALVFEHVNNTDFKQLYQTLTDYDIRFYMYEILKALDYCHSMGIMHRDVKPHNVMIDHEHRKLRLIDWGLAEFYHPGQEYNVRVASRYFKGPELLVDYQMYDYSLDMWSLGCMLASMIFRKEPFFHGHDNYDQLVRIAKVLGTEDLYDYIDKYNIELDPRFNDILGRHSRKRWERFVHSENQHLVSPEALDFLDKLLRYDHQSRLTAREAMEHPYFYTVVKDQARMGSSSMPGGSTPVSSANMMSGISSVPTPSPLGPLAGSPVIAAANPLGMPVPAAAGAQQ
JNK2, sequence (P45984 whole entry): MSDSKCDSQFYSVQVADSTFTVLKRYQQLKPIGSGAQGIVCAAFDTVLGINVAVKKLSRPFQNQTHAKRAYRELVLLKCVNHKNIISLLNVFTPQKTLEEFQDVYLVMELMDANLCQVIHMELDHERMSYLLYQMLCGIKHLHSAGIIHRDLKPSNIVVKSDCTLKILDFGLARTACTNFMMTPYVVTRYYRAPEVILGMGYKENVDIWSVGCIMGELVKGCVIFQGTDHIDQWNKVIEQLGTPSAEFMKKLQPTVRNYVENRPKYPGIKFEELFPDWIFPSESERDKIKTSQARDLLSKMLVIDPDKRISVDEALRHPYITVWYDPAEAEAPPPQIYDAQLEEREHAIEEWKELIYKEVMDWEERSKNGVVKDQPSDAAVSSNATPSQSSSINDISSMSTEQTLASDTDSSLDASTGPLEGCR
PAK1, sequence (Q13153 whole entry): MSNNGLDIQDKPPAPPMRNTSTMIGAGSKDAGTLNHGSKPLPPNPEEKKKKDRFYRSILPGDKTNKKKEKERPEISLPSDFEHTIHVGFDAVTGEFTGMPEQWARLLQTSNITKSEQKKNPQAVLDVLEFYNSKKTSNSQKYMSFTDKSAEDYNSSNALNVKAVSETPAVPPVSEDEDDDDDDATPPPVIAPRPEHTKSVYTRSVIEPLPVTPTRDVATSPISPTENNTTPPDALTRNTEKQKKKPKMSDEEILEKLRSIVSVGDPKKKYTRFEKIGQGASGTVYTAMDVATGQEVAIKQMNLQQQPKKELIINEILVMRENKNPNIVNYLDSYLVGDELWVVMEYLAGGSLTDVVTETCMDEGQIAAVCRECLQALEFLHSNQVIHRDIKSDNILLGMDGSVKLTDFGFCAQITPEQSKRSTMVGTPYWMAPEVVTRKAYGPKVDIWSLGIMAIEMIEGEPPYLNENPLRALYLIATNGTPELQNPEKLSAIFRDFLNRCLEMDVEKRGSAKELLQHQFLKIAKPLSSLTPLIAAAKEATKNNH
T4 sequence (P10635 whole entry): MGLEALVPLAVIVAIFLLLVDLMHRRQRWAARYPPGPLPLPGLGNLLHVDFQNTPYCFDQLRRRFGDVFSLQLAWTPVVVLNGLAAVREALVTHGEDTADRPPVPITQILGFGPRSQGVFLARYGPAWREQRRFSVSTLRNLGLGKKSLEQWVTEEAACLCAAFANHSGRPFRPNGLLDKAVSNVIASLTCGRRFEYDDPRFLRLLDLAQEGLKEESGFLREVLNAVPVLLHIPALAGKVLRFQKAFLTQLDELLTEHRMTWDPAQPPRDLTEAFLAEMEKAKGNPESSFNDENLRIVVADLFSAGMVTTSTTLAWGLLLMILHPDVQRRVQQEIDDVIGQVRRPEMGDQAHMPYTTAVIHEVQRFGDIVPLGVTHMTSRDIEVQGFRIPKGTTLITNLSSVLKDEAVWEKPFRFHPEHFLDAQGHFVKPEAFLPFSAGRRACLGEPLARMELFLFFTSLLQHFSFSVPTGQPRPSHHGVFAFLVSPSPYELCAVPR
HPK1/MAP4K1, sequence (Q92918 whole entry): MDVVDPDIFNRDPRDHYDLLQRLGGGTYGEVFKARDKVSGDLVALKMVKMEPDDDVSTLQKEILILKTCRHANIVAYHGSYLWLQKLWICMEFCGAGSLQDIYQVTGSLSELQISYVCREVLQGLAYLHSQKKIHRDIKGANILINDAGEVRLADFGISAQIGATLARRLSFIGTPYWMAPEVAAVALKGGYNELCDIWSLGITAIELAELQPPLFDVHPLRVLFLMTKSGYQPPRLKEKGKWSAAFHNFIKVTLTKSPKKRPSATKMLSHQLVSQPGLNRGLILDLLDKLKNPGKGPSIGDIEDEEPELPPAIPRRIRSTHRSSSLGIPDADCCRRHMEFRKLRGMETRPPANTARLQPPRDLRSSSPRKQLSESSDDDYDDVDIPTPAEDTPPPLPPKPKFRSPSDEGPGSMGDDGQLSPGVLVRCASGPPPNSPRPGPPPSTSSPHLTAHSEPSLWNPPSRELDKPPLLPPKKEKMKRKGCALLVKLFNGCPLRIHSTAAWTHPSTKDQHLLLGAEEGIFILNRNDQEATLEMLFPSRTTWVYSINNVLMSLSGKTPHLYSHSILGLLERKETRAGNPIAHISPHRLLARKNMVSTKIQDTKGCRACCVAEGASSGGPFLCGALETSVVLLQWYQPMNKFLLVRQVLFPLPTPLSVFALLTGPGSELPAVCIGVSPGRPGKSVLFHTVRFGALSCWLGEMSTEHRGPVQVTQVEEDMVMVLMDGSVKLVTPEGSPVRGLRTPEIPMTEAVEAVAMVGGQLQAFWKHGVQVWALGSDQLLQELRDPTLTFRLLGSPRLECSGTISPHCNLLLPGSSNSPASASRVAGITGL

| SMILES | % enzyme activity (PAK1) | % enzyme activity (ARK5/NUAK1) | % enzyme activity (ITK) | remaining activity at 1 µM (PKCb1) | remaining activity at 1 µM (PKAcg) | % enzyme activity (ZIPK/DAPK3) | % enzyme activity (BRSK1) | % enzyme activity (FLT4/VEGFR3) | % enzyme activity (CK2a) | remaining activity at 1 µM (PIM3) | % enzyme activity (HPK1/MAP4K1) | IC50 (CYP2D6) | remaining activity at 1 µM (JNK2) | % enzyme activity (MLK3/MAP3K11) | remaining activity at 1 µM (TESK1) |
| --- | --- | --- | --- | --- | --- | --- | --- | --- | --- | --- | --- | --- | --- | --- | --- |
| COc1cc(-c2cncc(-c3ccc(N4CCN(C)CC4)cc3)c2C)cc(F)c1C(N)=O [Compound 26a, 2-Fluoro-6-methoxy-4-(4-methyl-5-(4-(4-methylpiperazin-1-yl)phenyl)pyridin-3-yl)benzamide] | 102.29% | 90.26% | 103.48% | 85.5% | 94.1% | 103.31% | 83.89% | 97.81% | 91.32% | 100% | 57.53% | > 50 µM | 93.4% | 99.32% | 114% |
| COc1cc(-c2cncc(-c3ccc(N4C[C@@H](C)N(C)[C@@H](C)C4)cc3)c2C)cc(F)c1C(N)=O [Compound 26c, 2-Fluoro-6-methoxy-4-(4-methyl-5-(4-((3R,5S)-3,4,5-trimethylpiperazin-1-yl)phenyl)pyridin-3-yl)benzamide] | 100.98% | 93.75% | 100.51% | 85.3% | 101% | 102.34% | 78.18% | 96.61% | 86.32% | 107% | 74.31% | > 50 µM | 94.7% | 96.66% | 105% |
